Results published in ChEMBL document CHEMBL3399937, “(18)F-AmBF3-MJ9: a novel radiofluorinated bombesin derivative for prostate cancer imaging” (Bioorg Med Chem, 2015).

Assays:
Liver [1] = experiment: Biodistribution in liver of NSG mouse xenografted with human PC-3 tumor at 0.37 to 0.74 MBq, iv after 0.5 hrs by gamma counting analysis; format: ADME, organism-based; conditions: in vivo
Mus musculus [2] = experiment: Biodistribution in seminal gland of NSG mouse xenografted with human PC-3 tumor at 0.37 to 0.74 MBq, iv after 0.5 hrs by gamma counting analysis; format: ADME, organism-based; conditions: in vivo
Lung [3] = experiment: Biodistribution in lung of NSG mouse xenografted with human PC-3 tumor at 0.37 to 0.74 MBq, iv after 1 hr by gamma counting analysis; format: ADME, organism-based; conditions: in vivo
Mus musculus [4] = experiment: Biodistribution in seminal gland of NSG mouse xenografted with human PC-3 tumor at 0.37 to 0.74 MBq, iv after 1 hr by gamma counting analysis in presence of BAY86-7548; format: ADME, organism-based; conditions: in vivo
Mus musculus [5] = experiment: Biodistribution in testis of NSG mouse xenografted with human PC-3 tumor at 0.37 to 0.74 MBq, iv after 1 hr by gamma counting analysis in presence of BAY86-7548; format: ADME, organism-based; conditions: in vivo
Brain [6] = experiment: Biodistribution in brain of NSG mouse xenografted with human PC-3 tumor at 0.37 to 0.74 MBq, iv after 1 hr by gamma counting analysis; format: ADME, organism-based; conditions: in vivo
Intestine = experiment: Biodistribution in intestine of NSG mouse xenografted with human PC-3 tumor at 0.37 to 0.74 MBq, iv after 1 hr by gamma counting analysis in presence of BAY86-7548; format: ADME, organism-based; conditions: in vivo
Bone = experiment: Biodistribution in bone of NSG mouse xenografted with human PC-3 tumor at 0.37 to 0.74 MBq, iv after 1 hr by gamma counting analysis; format: ADME, organism-based, Bone element; conditions: in vivo
Mus musculus [7] = experiment: Biodistribution in testis of NSG mouse xenografted with human PC-3 tumor at 0.37 to 0.74 MBq, iv after 2 hrs by gamma counting analysis; format: ADME, organism-based; conditions: in vivo
Lung [8] = experiment: Biodistribution in lung of NSG mouse xenografted with human PC-3 tumor at 0.37 to 0.74 MBq, iv after 1 hr by gamma counting analysis in presence of BAY86-7548; format: ADME, organism-based; conditions: in vivo
Tumour [9] = experiment: Biodistribution in tumor of NSG mouse xenografted with human PC-3 tumor at 0.37 to 0.74 MBq, iv after 1 hr by gamma counting analysis; format: ADME, organism-based, Neoplasm; conditions: in vivo
Liver [10] = experiment: Biodistribution in liver of NSG mouse xenografted with human PC-3 tumor at 0.37 to 0.74 MBq, iv after 1 hr by gamma counting analysis; format: ADME, organism-based; conditions: in vivo
Liver [11] = experiment: Biodistribution in liver of NSG mouse xenografted with human PC-3 tumor at 0.37 to 0.74 MBq, iv after 1 hr by gamma counting analysis in presence of BAY86-7548; format: ADME, organism-based; conditions: in vivo
Mus musculus [12] = experiment: Biodistribution in adrenal gland of NSG mouse xenografted with human PC-3 tumor at 0.37 to 0.74 MBq, iv after 1 hr by gamma counting analysis in presence of BAY86-7548; format: ADME, organism-based; conditions: in vivo
Pancreas [13] = experiment: Biodistribution in pancreas of NSG mouse xenografted with human PC-3 tumor at 0.37 to 0.74 MBq, iv after 1 hr by gamma counting analysis in presence of BAY86-7548; format: ADME, organism-based; conditions: in vivo
Heart [14] = experiment: Biodistribution in heart of NSG mouse xenografted with human PC-3 tumor at 0.37 to 0.74 MBq, iv after 1 hr by gamma counting analysis; format: ADME, organism-based; conditions: in vivo
Mus musculus [15] = experiment: Biodistribution in adrenal gland of NSG mouse xenografted with human PC-3 tumor at 0.37 to 0.74 MBq, iv after 0.5 hrs by gamma counting analysis; format: ADME, organism-based; conditions: in vivo
Brain [16] = experiment: Biodistribution in brain of NSG mouse xenografted with human PC-3 tumor at 0.37 to 0.74 MBq, iv after 0.5 hrs by gamma counting analysis; format: ADME, organism-based; conditions: in vivo
Pancreas [17] = experiment: Biodistribution in pancreas of NSG mouse xenografted with human PC-3 tumor at 0.37 to 0.74 MBq, iv after 0.5 hrs by gamma counting analysis; format: ADME, organism-based; conditions: in vivo
[18] = Biodistribution in fat of NSG mouse xenografted with human PC-3 tumor at 0.37 to 0.74 MBq, iv after 2 hrs by gamma counting analysis; format: ADME, organism-based, Adipose tissue; conditions: in vivo
Kidney [19] = experiment: Biodistribution in kidney of NSG mouse xenografted with human PC-3 tumor at 0.37 to 0.74 MBq, iv after 1 hr by gamma counting analysis in presence of BAY86-7548; format: ADME, organism-based; conditions: in vivo
Heart [20] = experiment: Biodistribution in heart of NSG mouse xenografted with human PC-3 tumor at 0.37 to 0.74 MBq, iv after 2 hrs by gamma counting analysis; format: ADME, organism-based; conditions: in vivo
Spleen = experiment: Biodistribution in spleen of NSG mouse xenografted with human PC-3 tumor at 0.37 to 0.74 MBq, iv after 1 hr by gamma counting analysis; format: ADME, organism-based; conditions: in vivo
Brain [21] = experiment: Biodistribution in brain of NSG mouse xenografted with human PC-3 tumor at 0.37 to 0.74 MBq, iv after 2 hrs by gamma counting analysis; format: ADME, organism-based; conditions: in vivo
Plasma = experiment: Metabolic stability in mouse plasma after 0.5 to 2 hrs by HPLC analysis; format: ADME, cell-free
Tumour [22] = experiment: Biodistribution in tumor of NSG mouse xenografted with human PC-3 tumor at 0.37 to 0.74 MBq, iv after 0.5 hrs by gamma counting analysis; format: ADME, organism-based, Neoplasm; conditions: in vivo
Blood = experiment: Biodistribution in blood of NSG mouse xenografted with human PC-3 tumor at 0.37 to 0.74 MBq, iv after 1 hr by gamma counting analysis in presence of BAY86-7548; format: ADME, organism-based; conditions: in vivo
Mus musculus [23] = experiment: Biodistribution in adrenal gland of NSG mouse xenografted with human PC-3 tumor at 0.37 to 0.74 MBq, iv after 1 hr by gamma counting analysis; format: ADME, organism-based; conditions: in vivo
[24] = Biodistribution in fat of NSG mouse xenografted with human PC-3 tumor at 0.37 to 0.74 MBq, iv after 1 hr by gamma counting analysis; format: ADME, organism-based, Adipose tissue; conditions: in vivo
Heart [25] = experiment: Biodistribution in heart of NSG mouse xenografted with human PC-3 tumor at 0.37 to 0.74 MBq, iv after 0.5 hrs by gamma counting analysis; format: ADME, organism-based; conditions: in vivo
Kidney [26] = experiment: Biodistribution in kidney of NSG mouse xenografted with human PC-3 tumor at 0.37 to 0.74 MBq, iv after 0.5 hrs by gamma counting analysis; format: ADME, organism-based; conditions: in vivo
Mus musculus [27] = experiment: Biodistribution in seminal gland of NSG mouse xenografted with human PC-3 tumor at 0.37 to 0.74 MBq, iv after 2 hrs by gamma counting analysis; format: ADME, organism-based; conditions: in vivo

A Drug uptake (Liver [1]) of 2.63 % ID/g, a Drug uptake (Mus musculus [2]) of 0.33 % ID/g and a Drug uptake (Lung [3]) of 0.96 % ID/g were found for `CC(C)C[C@H](NC(=O)C[C@H](O)[C@H](CC(C)C)NC(=O)[C@H](Cc1cnc[nH]1)NC(=O)CNC(=O)[C@@H](NC(=O)[C@H](C)NC(=O)[C@H](Cc1c[nH]c2ccccc12)NC(=O)[C@H](CCC(N)=O)NC(=O)[C@@H](Cc1ccccc1)NC(=O)CN1CCC(NC(=O)Cn2cc(C[N+](C)(C)C[B-](F)(F)[17F])nn2)CC1)C(C)C)C(N)=O` in this work. It also gave a Drug uptake (Mus musculus [4]) of 0.12 % ID/g, a Drug uptake (Mus musculus [5]) of 0.25 % ID/g and a Drug uptake (Brain [6]) of 0.02 % ID/g. The Drug uptake (Intestine) was 0.25 % ID/g, the Drug uptake (Bone) was 0.28 % ID/g and the Drug uptake (Mus musculus [7]) was 0.13 % ID/g. For the same compound, the Drug uptake (Lung [8]) was 0.71 % ID/g, the Drug uptake (Tumour [9]) was 1.47 % ID/g and the Drug uptake (Liver [10]) was 0.78 % ID/g. The Drug uptake (Liver [11]) was 1.05 % ID/g, the Drug uptake (Mus musculus [12]) was 0.21 % ID/g and the Drug uptake (Pancreas [13]) was 0.42 % ID/g. The Drug uptake (Heart [14]) was 0.13 % ID/g, the Drug uptake (Mus musculus [15]) was 1.16 % ID/g and the Drug uptake (Brain [16]) was 0.07 % ID/g. The Drug uptake (Pancreas [17]) was 8.04 % ID/g, the Drug uptake [18] was 0.05 % ID/g and the Drug uptake (Kidney [19]) was 6.66 % ID/g. It also gave a Drug uptake (Heart [20]) of 0.06 % ID/g, a Drug uptake (Spleen) of 0.33 % ID/g and a Drug uptake (Brain [21]) of 0.01 % ID/g. The Stability (Plasma) was “Stable”, the Drug uptake (Tumour [22]) was 2.77 % ID/g and the Drug uptake (Blood) was 0.48 % ID/g. It also gave a Drug uptake (Mus musculus [23]) of 0.5 % ID/g, a Drug uptake [24] of 0.07 % ID/g and a Drug uptake (Heart [25]) of 0.54 % ID/g. The Drug uptake (Kidney [26]) was 6.6 % ID/g and the Drug uptake (Mus musculus [27]) was 0.15 % ID/g.
